{"source": "patent US20110129532A1", "about": "“METHOD AND MEANS FOR TREATING VIRAL DISEASE, IN PARTICULAR HIV/AIDS” (ISR Immune System Regulation AB, priority 2008, published 2011)", "key": {"[1]": {"test_system": "PBMC", "experiment": "IL-2-induced PBMC proliferation assay ([3H]thymidine)", "assay_type": "cell-based, human", "conditions": "PBMC from a healthy donor; with IL-2 50 U/mL; compared with IL-2 alone and untreated controls; FIG. 1", "description": "Isolation of peripheral blood mononuclear cells (PBMC). Lymphocytes and monocytes were purified from blood samples from healthy donors using Ficoll-Paque Plus (Amersham Biosciences, Uppsala, Sweden). The blood sample was diluted with PBS and carefully layered on a Ficoll-sodium diatrizoate solution, after which the two-phase system was centrifuged at 400×g for 30 min. […] The lymphocyte layer was collected using a Pasteur pipette, and the cells washed with HBSS to remove excess Ficoll-Paque Plus, plasma and platelets. The cells were counted and dissolved in RPMI medium containing 10% HuS, 1% PeSt and 1% glutamine.\nProliferation assay. Interleukin (IL)-2 plays a pivotal role in lymphocyte activation and proliferation. For this reason the effect of GnRH analog on IL-2-induced PBMC proliferation was investigated. PBMCs from a healthy donor were plated in round-bottomed 96-well plates at a concentration of 1×10^5 cells/100 μL in the culture medium described above. Just after the onset of culture, the cells were treated with IL-2 (Proleukin, Chiron Corporation, Emeryville, Ca, USA) at a concentration of 50 U/mL and with three different concentrations between 1×10^−9 and 1×10^−5 M of GnRH analog (Leuprolide acetate, Nordic Drugs, Limhamn, Sweden) or culture medium (FIG. 1). […] Radioactivity was measured using a 1205 Betaplate Liquid ScintillCounter (Wallac, Turku, Finland)."}, "[2]": {"test_system": "T cells", "experiment": "Stimulation of T cells in whole blood with GnRH analog, activation markers by flow cytometry", "assay_type": "cell-based, human", "description": "Stimulation of T-cells from HIV-patients with GnRH-analog. Because of the risk of contamination, blood samples from HIV-patients had to be handled and analyzed in a closed automated system. Heparinised blood from three HIV-patients and two healthy individuals was diluted with serum-free culture medium (Aim V from Invitrogen) and stimulated with 50 U/mL IL-2 and four different concentrations of the GnRH analog leuprolide acetate between 10^−1 and 10^−5 M. The blood samples were handled by a dispensation robot (Prep Plus) and incubated, lysed, stabilized and fixed in a TQ-Prep machine. The incubation time was 18 h and the temperature 37° C. After the incubation with Leuprolide acetate and IL-2, the cells were stained with fluorochrome-conjugated mAbs for 10 min, and red blood cells were lysed. The lymphocytes were subsequently analysed by flow cytometry on an Epics XL-MCL (all machines from Beckman Coulter). T-cells were identified by their forward-and side scatter properties, and the surface expression of CD3. The expression of the activation markers CD25, CD69, HLA ABC, and HLA DR on T cells was evaluated."}, "[3]": {"conditions": "whole blood, HIV-infected patients and control subjects, 18 h incubation"}}}
{"smiles": "CCNC(=O)[C@@H]1CCCN1C(=O)[C@H](CCCNC(=N)N)NC(=O)[C@H](CC(C)C)NC(=O)[C@@H](CC(C)C)NC(=O)[C@H](Cc1ccc(O)cc1)NC(=O)[C@H](CO)NC(=O)[C@H](Cc1c[nH]c2ccccc12)NC(=O)[C@H](Cc1c[nH]cn1)NC(=O)[C@@H]1CCC(=O)N1", "note": "[GnRH, D-Leu^6, des-Gly-NH2^10] GnRH (1-9) NHEt]", "values": [{"measurement": "PBMC proliferation", "setting": "[1]", "result": "increased proliferation"}, {"measurement": "expression of HLA DR on T cells", "setting": "[2]; whole blood from HIV-patients, 18 h incubation", "result": "increased in one of three HIV-patients"}, {"measurement": "expression of HLA ABC on T cells", "setting": "[2]; whole blood from healthy subjects or HIV-infected patients, 18 hours incubation, 50 U/mL IL-2, leuprolide acetate between 10^−1 and 10^−5 M, FIG. 6", "result": "upregulation of HLA ABC"}, {"measurement": "expression of CD25 on T cells", "setting": "[2]; [3]", "result": "only a slight increase"}, {"measurement": "expression of CD69 on T cells", "setting": "[2]; [3]", "result": "only a slight increase"}]}
